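1) Cells in 96-well plates. 2) Compound, 48 h, 5 concentrations. 3) Linear interpolation between surrounding doses. 4) Unreached endpoint = highest concentration. Here, GI50 denotes the concentration required for 50% inhibition of growth. TGI: concentration producing complete growth inhibition.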
Assays:
Assay in all cases: DTP human tumour cell line panel, 48 h
[1] = test system: K-562 leukemia
[2] = test system: U251 CNS
[3] = test system: COLO 205 colon
[4] = test system: HOP-62 NSCLC
[5] = test system: CAKI-1 renal
[6] = test system: OVCAR-4 ovarian
[7] = test system: UO-31 renal
[8] = test system: MDA-MB-468 breast
[9] = test system: MDA-MB-435
[10] = test system: HCC-2998 colon
[11] = test system: HOP-92 NSCLC
[12] = test system: HCT-15 colon
[13] = test system: NCI-H226 lung
[14] = test system: NCI-H522 lung
[15] = test system: SF-539 CNS
[16] = test system: HS 578T breast
[17] = test system: EKVX NSCLC
[18] = test system: UACC-257 melanoma
[19] = test system: SN12C renal
[20] = test system: SK-MEL-2 melanoma
[21] = test system: NCI-H23 lung
[22] = test system: HL-60(TB) leukemia
[23] = test system: LOX IMVI melanoma
[24] = test system: IGROV1 ovarian
[25] = test system: NCI-H460 lung
[26] = test system: ACHN renal
[27] = test system: MCF7 breast
[28] = test system: DU-145 prostate
[29] = test system: TK-10 renal
[30] = test system: SK-OV-3 ovarian
[31] = test system: M14 melanoma
[32] = test system: HCT-116 colon
[33] = test system: SNB-19 CNS
[34] = test system: PC-3 prostate
[35] = test system: SR leukemia
[36] = test system: 786-0 renal
[37] = test system: HT29 colon
[38] = test system: MALME-3M melanoma
[39] = test system: SW-620 colon
[40] = test system: OVCAR-8 ovarian
[41] = test system: OVCAR-3 ovarian
[42] = test system: T-47D breast
[43] = test system: CCRF-CEM leukemia
[44] = test system: UACC-62 melanoma
[45] = test system: SF-268 CNS
[46] = test system: RXF 393 renal
[47] = test system: SK-MEL-5 melanoma
[48] = test system: BT-549 breast
[49] = test system: A498 renal
[50] = test system: SK-MEL-28 melanoma
[51] = test system: SF-295 CNS
[52] = test system: A549 NSCLC
[53] = test system: MOLT-4 leukemia
[54] = test system: MDA-MB-231 breast
[55] = test system: KM12 colon
[56] = test system: OVCAR-5 ovarian

`CN(C)c1nc(NCCNS(=O)(=O)c2ccc(C(=O)/C=C/c3ccc(Cl)cc3)cc2)nc(N2CCOCC2)n1` gave a GI50 [1] of 3.71 µM, a TGI [1] greater than 100 µM and a GI50 [2] of 8.17 µM. It also gave a TGI [2] of 20.7 µM, a GI50 [3] of 16.7 µM and a TGI [3] of 34.3 µM. The GI50 [4] was 17.5 µM, the TGI [4] was 34 µM and the GI50 [5] was 11.2 µM. For the same compound, the TGI [5] was 24.7 µM, the GI50 [6] was 14.7 µM and the TGI [6] was 29 µM. It also gave a GI50 [7] of 11.4 µM, a TGI [7] of 23.5 µM and a GI50 [8] of 11 µM. For the same compound, the TGI [8] was 24.9 µM, the GI50 [9] was 12.8 µM and the TGI [9] was 26.6 µM. It also gave a GI50 [10] of 16.7 µM, a TGI [10] of 30.8 µM and a GI50 [11] of 15.1 µM. The TGI [11] was 32 µM, the GI50 [12] was 2.07 µM and the TGI [12] was 4.54 µM. The GI50 [13] was 15.7 µM, the TGI [13] was 34 µM and the GI50 [14] was 14 µM. It also gave a TGI [14] of 27.3 µM, a GI50 [15] of 14.7 µM and a TGI [15] of 27.9 µM. For the same compound, the GI50 [16] was 15.8 µM, the TGI [16] was 60.5 µM and the GI50 [17] was 14.8 µM. The TGI [17] was 28.7 µM, the GI50 [18] was 16.2 µM and the TGI [18] was 30 µM. It also gave a GI50 [19] of 14.4 µM, a TGI [19] of 27.8 µM and a GI50 [20] of 16.6 µM. For the same compound, the TGI [20] was 30.4 µM, the GI50 [21] was 15.7 µM and the TGI [21] was 29.5 µM. The GI50 [22] was 14.7 µM, the TGI [22] was 95.1 µM and the GI50 [23] was 1.71 µM. The TGI [23] was 3.24 µM, the GI50 [24] was 3.08 µM and the TGI [24] was 11 µM. It also gave a GI50 [25] of 16.8 µM, a TGI [25] of 33.6 µM and a GI50 [26] of 13.5 µM. For the same compound, the TGI [26] was 26.3 µM, the GI50 [27] was 2.37 µM and the TGI [27] was 6.39 µM. It also gave a GI50 [28] of 17.2 µM, a TGI [28] of 34 µM and a GI50 [29] of 15.8 µM. It also gave a TGI [29] of 29.4 µM, a GI50 [30] of 15.3 µM and a TGI [30] of 30.2 µM. The GI50 [31] was 14.1 µM, the TGI [31] was 28.3 µM and the GI50 [32] was 11.7 µM. The TGI [32] was 24.3 µM, the GI50 [33] was 14.2 µM and the TGI [33] was 27.2 µM. For the same compound, the GI50 [34] was 13 µM, the TGI [34] was 29.6 µM and the GI50 [35] was 2.52 µM. It also gave a TGI [35] greater than 100 µM, a GI50 [36] of 14.8 µM and a TGI [36] of 28.8 µM. For the same compound, the GI50 [37] was 3.21 µM, the TGI [37] was 10.4 µM and the GI50 [38] was 15.1 µM. The TGI [38] was 28.6 µM, the GI50 [39] was 8.46 µM and the TGI [39] was 21.7 µM. It also gave a GI50 [40] of 14.8 µM, a TGI [40] of 28.4 µM and a GI50 [41] of 17.9 µM. The TGI [41] was 35.5 µM, the GI50 [42] was 16.7 µM and the TGI [42] was 42.2 µM. For the same compound, the GI50 [43] was 6.86 µM, the TGI [43] was greater than 100 µM and the GI50 [44] was 11.4 µM. It also gave a TGI [44] of 23.7 µM, a GI50 [45] of 17.7 µM and a TGI [45] of 43.8 µM. It also gave a GI50 [46] of 12.8 µM, a TGI [46] of 27 µM and a GI50 [47] of 16.3 µM. The TGI [47] was 30.1 µM, the GI50 [48] was 15.3 µM and the TGI [48] was 29.3 µM. It also gave a GI50 [49] of 12.4 µM, a TGI [49] of 25.1 µM and a GI50 [50] of 15.5 µM. It also gave a TGI [50] of 28.9 µM, a GI50 [51] of 13.3 µM and a TGI [51] of 26.4 µM. It also gave a GI50 [52] of 14.4 µM, a TGI [52] of 28.5 µM and a GI50 [53] of 3.38 µM. The TGI [53] was 80.3 µM, the GI50 [54] was 13.3 µM and the TGI [54] was 26.5 µM. For the same compound, the GI50 [55] was 16.9 µM, the TGI [55] was 41.4 µM and the GI50 [56] was 15 µM. The TGI [56] was 28.4 µM.

From PubChem BioAssay (NCI)
